Values quoted from earlier work in patent US20240197806A1, “EBELIN LACTONE OR BACOGENIN A1 ENRICHED COMPOSITION AND METHOD OF PREPARATION THEREOF” (priority 2022, published 2024).
pKi: −log10 of the molar value.

Experiments:
[1] = Ramasamy et al., PLoS One 2015
[2] = Ramasamy et al., PLoS One 2015; remark: listed apart in the source
[3] = target: 5-HT2A receptors (Homo sapiens, UniProt P28223); settings: read-out: Ki, binding to the 5-HT2A receptors
5-HT2A receptors, sequence (P28223 whole entry): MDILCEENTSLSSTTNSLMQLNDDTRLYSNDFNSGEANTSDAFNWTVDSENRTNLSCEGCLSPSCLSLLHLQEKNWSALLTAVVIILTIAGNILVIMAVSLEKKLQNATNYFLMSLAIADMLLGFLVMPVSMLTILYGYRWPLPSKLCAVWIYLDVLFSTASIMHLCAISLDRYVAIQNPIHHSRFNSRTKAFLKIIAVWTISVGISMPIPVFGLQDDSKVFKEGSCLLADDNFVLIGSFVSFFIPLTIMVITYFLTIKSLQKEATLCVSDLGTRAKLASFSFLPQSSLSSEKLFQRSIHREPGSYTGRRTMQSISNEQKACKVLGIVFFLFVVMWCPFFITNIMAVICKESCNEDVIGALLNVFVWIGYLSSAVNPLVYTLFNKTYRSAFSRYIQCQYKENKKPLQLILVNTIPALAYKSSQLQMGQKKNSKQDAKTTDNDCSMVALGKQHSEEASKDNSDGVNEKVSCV

| Compound | intestinal absorption [1] | ability to cross the blood brain barrier / blood brain barrier penetration [2] | pKi [3] |
| --- | --- | --- | --- |
| CC1=CC(C)(C)O[C@@]1(C)C1C(=O)C[C@]2(CO)C1CCC1[C@@]3(C)CC[C@H](O)C(C)(C)C3CC[C@]12C (stereo partly drawn) [bacogenin A1] | same absorption parameters as jujubogenin and pseudojujubogenin | – | – |
| CC(C)=C[C@H]1C[C@](C)(O)[C@@H]2[C@H]3CC[C@@H]4[C@@]5(C)CC[C@H](O[C@@H]6OC[C@H](O)[C@H](O[C@@H]7O[C@H](CO)[C@@H](O)[C@H](O)[C@H]7O)[C@H]6O[C@@H]6O[C@@H](CO)[C@H](O)[C@H]6O)C(C)(C)[C@@H]5CC[C@@]4(C)[C@@]34CO[C@@]2(C4)O1 [bacopaside X] | poor | not able to cross | – |
| CC(C)=C[C@@H]1CO[C@]23C[C@]4(CO2)[C@H](CC[C@@H]2[C@@]5(C)CC[C@H](O[C@@H]6OC[C@H](O)[C@H](O[C@@H]7O[C@H](CO)[C@@H](O)[C@H](O)[C@H]7O)[C@H]6O[C@@H]6O[C@@H](CO)[C@H](O)[C@H]6O)C(C)(C)[C@@H]5CC[C@]24C)[C@H]3[C@@]1(C)O [bacopasaponin C] | poor | not able to cross | – |
| CC(C)=C/C=C/C(C)=C/C1CCC2[C@@]3(C)CC[C@H](O)C(C)(C)C3CC[C@@]2(C)[C@@]12COC(=O)C2 (stereo partly drawn) [ebelin lactone] | – | very high | 5.38 |
| CC(C)=C[C@H]1C[C@](C)(O)[C@H]2[C@H]3CC[C@@H]4[C@@]5(C)CC[C@H](O[C@@H]6O[C@H](CO)[C@@H](O)[C@H](O[C@@H]7O[C@H](CO)[C@@H](O)[C@H](O)[C@H]7O)[C@H]6O[C@@H]6O[C@@H](CO)[C@H](O)[C@H]6O)C(C)(C)[C@@H]5CC[C@@]4(C)[C@@]34CO[C@@]2(C4)O1 [bacoside A3] | poor | not able to cross | – |
| CC(C)=CC1C[C@](C)(O)C2C3CCC4[C@@]5(C)CC[C@H](O)C(C)(C)C5CC[C@@]4(C)[C@]34CO[C@]2(C4)O1 (stereo partly drawn) [jujubogenin] | good | able to cross | – |
| bacopaside II | poor | not able to cross | – |
| CC(C)=CC1COC23CC4(CO2)C(CCC2C5(C)CCC(O)C(C)(C)C5CCC24C)C3C1(C)O (stereo not drawn) [pseudojujubogenin] | good | able to cross | – |
